Laboratory results: patent publication US20230218548A1 (priority 2020, published 2023)
Where two headings read alike, the source gives them in different places.

Tests used:
SARS-CoV-2 = assay: microbe, parasite or virus in culture; format: cell-based, SARS-CoV-2 (USA-WA1/2020)
[1] = biological target: SARS-CoV-2 envelope (E) protein (Severe acute respiratory syndrome coronavirus 2, UniProt P0DTC4); format: cell-based
HeLa-ACE2 cells = format: cell-based; details: host cell toxicity, 24 h, read-out: HeLa-ACE2 EC50
Description: Compounds were prepared and plated in 384-well plates as for the infection assay. HeLa-ACE2 cells were seeded in the assay-ready plates at 1.6×10^3 cells/well in assay medium, and plates were incubated for 24 h at 37° C. with 5% CO2. To assess cell viability, the Image-IT DEAD green reagent (Thermo Fisher, 110291) was used according to manufacturer's instructions. Cells were fixed with 4% paraformaldehyde (PFA) and counterstained with DAPI. Fixed cells were imaged using the ImageXpress Micro Confocal High-Content Imaging System (Molecular Devices) with a 10x objective, and total live cells per well quantified in the acquired images using the Live Dead Application Module (MetaXpress).
The in vitro infection assay and the host cell cytotoxicity counterscreen data were uploaded to Genedata Screener, Version 16.0. Data were normalized to neutral (DMSO) […] inhibitor controls (2.5 μM remdesivir for antiviral effect, and 10 μM puromycin for infected host cell toxicity). For the uninfected host cell cytotoxicity counterscreen, 10 μM puromycin (Sigma) was used as a positive control. For dose-response experiments, compounds were tested in technical triplicates, and dose curves were fitted with the four parameter Hill Equation. Replicate data were analyzed using median condensing.

ACE2 = ACE2 (Homo sapiens, UniProt Q9BYF1); assay: Mass spectrometry analysis of S-nitrosylated ACE2 protein; format: cell-based; details: after exposure to SNOC
Description: Biotin switch was performed as described above. […] The samples were desalted using a ZebaSpin desalting column (Thermo Scientific) pre-equilibrated with PBS, and biotinylated ACE2 protein was immunoprecipitated as described above. Immunoprecipitated ACE2 was eluted in 1% SDS solution and precipitated using methanol-chloroform. Dried pellets were dissolved in 8 M urea/100 mM triethylammonium bicarbonate (TEAB, pH 8.5). Samples were diluted to 2 M urea/100 mM TEAB, and proteins were trypsin digested overnight at 37° C. The digested ACE2 peptides were enriched a second time by biotin-avidin affinity to enrich biotinylated peptides representing the initial SNO sites. After avidin enrichment, peptides were eluted by reduction using tris(2-carboxyethyl)phosphine (TCEP).
Samples were analyzed on a Thermo Orbitrap Eclipse mass spectrometer (Thermo). Samples were injected directly onto a 25 cm, 100 μm ID column packed with ethylene bridged hybrid (BEH) 1.7 μm C18 resin (Waters). Samples were separated at a flow rate of 300 nl/min on a nLC 1200 (Thermo) using a gradient of solution A (0.1% formic acid in water, 5% acetonitrile) and solution B (80% acetonitrile/0.1% formic acid). Specifically, a gradient of 1-25% B over 100 min, an increase to 40% B over 20 min, an increase to 100% B over another 10 min and held at […] for a 10 min was used for a 140 min total run time. […]

[2] = Severe acute respiratory syndrome coronavirus 2, HeLa-ACE2, 24 h

Sequence of ACE2 (Q9BYF1 18-805): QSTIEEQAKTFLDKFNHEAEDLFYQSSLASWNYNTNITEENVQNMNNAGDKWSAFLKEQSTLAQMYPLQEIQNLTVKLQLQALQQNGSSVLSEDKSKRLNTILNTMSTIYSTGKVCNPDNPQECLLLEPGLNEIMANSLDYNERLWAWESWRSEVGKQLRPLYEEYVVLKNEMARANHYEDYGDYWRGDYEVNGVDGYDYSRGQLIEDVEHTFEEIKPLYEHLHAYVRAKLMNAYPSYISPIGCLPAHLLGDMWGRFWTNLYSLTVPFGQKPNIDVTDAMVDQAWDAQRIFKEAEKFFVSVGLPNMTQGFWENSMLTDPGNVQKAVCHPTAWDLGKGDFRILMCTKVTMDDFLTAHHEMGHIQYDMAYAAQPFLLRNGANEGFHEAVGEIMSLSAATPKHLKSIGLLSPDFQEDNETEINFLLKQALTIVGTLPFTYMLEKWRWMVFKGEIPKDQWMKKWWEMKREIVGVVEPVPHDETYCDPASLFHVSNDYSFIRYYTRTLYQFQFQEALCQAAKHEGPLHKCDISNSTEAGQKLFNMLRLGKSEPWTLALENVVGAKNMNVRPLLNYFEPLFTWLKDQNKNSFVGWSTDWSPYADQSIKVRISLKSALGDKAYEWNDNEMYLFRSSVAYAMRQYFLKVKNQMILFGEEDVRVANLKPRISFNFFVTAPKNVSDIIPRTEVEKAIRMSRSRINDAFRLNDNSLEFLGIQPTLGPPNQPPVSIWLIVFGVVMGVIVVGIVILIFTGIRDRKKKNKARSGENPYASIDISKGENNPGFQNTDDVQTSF
Sequence of SARS-CoV-2 envelope (E) protein (P0DTC4 whole entry, looked up): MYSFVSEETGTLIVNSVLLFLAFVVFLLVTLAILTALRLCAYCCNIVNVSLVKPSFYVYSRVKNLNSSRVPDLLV

SMILES | Selectivity Index CC50/EC50 (SARS-CoV-2) | EC50 (SARS-CoV-2; [2]) [µM] | CC50 (host cell cytotoxicity) (HeLa-ACE2 cells) [µM] | EC50 (SARS-CoV-2) [µM] | also measured
Cc1cccc(/C=N/Nc2cc(N3CCOCC3)nc(OCCc3ccccn3)n2)c1 [Apilimod] | >332.11 | 0.0072 | – | – | –
CC12CC3CC(C)(C1)CC(N)(C3)C2 [NMT1, memantine] | 2.69 | 53.9 | – | – | Inhibition of E protein voltage-dependent K+ current [1]: inhibited in a dose-dependent manner
CCC12CC3CC(N)(C1)CC(CO[N+](=O)[O-])(C3)C2 (stereo not shown) [NMT2] | – | – | 122 | 21.9 | –
NC12CC3CC(CC(C3)C1)C2 [NMT4, amantadine] | >2.86 | 70 | – | – | –
CC12CC3(C)CC(CCN)(C1)CC(CO[N+](=O)[O-])(C2)C3 [NMT6] | – | – | 10.5 | 3.32 | –
NCC1(c2cccc(O[N+](=O)[O-])c2)C2CC3CC(C2)CC1C3 (stereo not shown) [NMT7] | – | – | > 200 | 90.7 | –
CCC(O[N+](=O)[O-])C12CC3(C)CC(C)(CC(CCN)(C3)C1)C2 (stereo not shown) [NMT8] | – | – | 8.37 | 3.75 | –
CC12CC3(C)CC(CN)(C1)CC(O[N+](=O)[O-])(C2)C3 [NMT9] | – | – | > 200 | > 200 | –
COc1ccc(C[C@H](N)C(=O)N[C@H]2[C@@H](O)[C@H](n3cnc4c(N(C)C)ncnc43)O[C@@H]2CO)cc1 [Puromycin] | 0.728 | 0.617 | – | – | –
CCC(CC)COC(=O)[C@H](C)N[P@](=O)(OC[C@H]1O[C@@](C#N)(c2ccc3c(N)ncnn23)[C@H](O)[C@@H]1O)Oc1ccccc1 [Remdesivir] | >16.94 | 0.142 | – | – | –
N[C@@H](CSN=O)C(=O)O [SNOC] | – | – | – | – | S-nitrosylated ACE2 sites by mass spectrometry (ACE2): S-nitrosylated ACE2 at Cys^261 and Cys^496
